Measurements as given in patent US10471095B2, “Suspension of graphene oxide nanoflakes in water, its use and a method of preparation thereof” (priority 2014, dated 2019).

Tested on: chicken embryo
Assay: Toxicity of graphene oxide and nano-Pt in chicken embryo (in ovo)
Details: in vivo
Description: Biological models: study was conducted on models: 1. Chicken embryo maintained by in ovo method, which above all allowed for fast, accurate and insightful observations of potential toxicity, especially embryotoxicity of graphene oxide and Pt nanoparticles of various concentrations. 2. Glioblastoma multiforme GM (U-87) cell lines in order to observe basic mechanisms occurring in the cells under the influence of graphene oxide and platinum nanoparticles and having selected the used experimental factors 3. Glioblastoma multiforme (U-87) tumour grown by in ovo method in order to confirm or reject the preliminary results. This study allowed for the final verification of formulated hypotheses.
Step I—preliminary study—determination of potential toxic properties of graphene oxide and nano-Pt in contact with a living organism (chicken embryo) • Determination of the influence of graphene oxide and nano-Pt on homeostasis of the organism of chicken embryo (survival rate, growth and development, biochemical and morphological indicators of blood, expression of selected genes, image of microstructure and ultrastructure of the brain, apoptosis/necrosis and others). […] The study indicated a potential antitumor effect of Pt nanoparticles and a low degree of toxicity.

## graphene oxide
  toxic effects on biochemical and morphological indicators of blood, FGF, VEGF, PCNA gene expression, microstructure and ultrastructure of brain and liver: does not exhibit toxic effects
